Measured values published in PubChem BioAssay AID328 (DTP/NCI, 2004).
“And” between values parts separate entries of the source, which are not always exact repeats. Identical values can stand only once. Inconclusive results and toxic doses are left out.

System: BDF1 mice, P388 leukemia ip, median survival T/C
Experiment: NCI In Vivo Anticancer Drug Screen. Data for tumor model P388 Leukemia (intraperitoneal) in B6D2F1 (BDF1) mice
Details: endpoint: median survival time, higher = longer survival
Procedure, shortened: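 Antitumour effect was judged in vivo: survival in drug-treated mice, normalised to that of vehicle-dosed controls, gives the reported T/C.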

[1] = dose: 25.0 mg/kg/injection, schedule: Q01DX009 (ip), vehicle: saline
[2] = dose: 50.0 mg/kg/injection, schedule: Q01DX009 (ip), vehicle: saline
[3] = dose: 100.0 mg/kg/injection, schedule: Q04DX003 (ip), vehicle: saline
[4] = dose: 50.0 mg/kg/injection, schedule: Q01DX009 (ip), vehicle: saline with Tween-80
[5] = dose: 100.0 mg/kg/injection, schedule: Q01DX009 (ip), vehicle: saline with Tween-80
[6] = dose: 200.0 mg/kg/injection, schedule: Q01DX009 (ip), vehicle: saline with Tween-80
[7] = dose: 100.0 mg/kg/injection, schedule: Q01DX009 (ip), vehicle: Klucel (hydroxypropylcellulose) (HPC)
[8] = dose: 200.0 mg/kg/injection, schedule: Q01DX009 (ip), vehicle: Klucel (hydroxypropylcellulose) (HPC)
[9] = dose: 400.0 mg/kg/injection, schedule: Q01DX009 (ip), vehicle: Klucel (hydroxypropylcellulose) (HPC)
[10] = dose: 100.0 mg/kg/injection, schedule: Q01DX001 (ip), vehicle: saline
[11] = dose: 200.0 mg/kg/injection, schedule: Q01DX001 (ip), vehicle: saline

SMILES: C1CCC2C[N-]CCC2C1.C1CCC2C[N-]CCC2C1.C1CCC2C[N-]CCC2C1.C1CCC2C[N-]CCC2C1.[Cl][Rh][Cl] (configuration not stated)
- T/C (dose: 0.13 mg/kg/injection, schedule: Q01DX009 (ip), vehicle: saline): 95 % of control
- T/C (dose: 0.25 mg/kg/injection, schedule: Q01DX009 (ip), vehicle: saline): 104 % of control
- T/C (dose: 0.39 mg/kg/injection, schedule: Q01DX009 (ip), vehicle: saline with Tween-80): 115 % of control
- T/C (dose: 0.5 mg/kg/injection, schedule: Q01DX009 (ip), vehicle: saline): 119 % of control
- T/C (dose: 0.78 mg/kg/injection, schedule: Q01DX009 (ip), vehicle: saline with Tween-80): 115 % of control
- T/C (dose: 0.88 mg/kg/injection, schedule: Q01DX009 (ip), vehicle: saline): 153 % of control
- T/C (dose: 1.33 mg/kg/injection, schedule: Q01DX009 (ip), vehicle: saline): 174 % of control
- T/C (dose: 1.56 mg/kg/injection, schedule: Q01DX009 (ip), vehicle: saline with Tween-80): 150 % of control
- T/C (dose: 2.0 mg/kg/injection, schedule: Q01DX009 (ip), vehicle: saline): 153 % of control
- T/C (dose: 2.66 mg/kg/injection, schedule: Q01DX009 (ip), vehicle: saline): 159 % of control
- T/C (dose: 3.12 mg/kg/injection, schedule: Q01DX009 (ip), vehicle: saline with Tween-80): 185 % of control
- T/C (dose: 4.0 mg/kg/injection, schedule: Q01DX009 (ip), vehicle: saline): 168 % of control and 170 % of control
- T/C (dose: 6.0 mg/kg/injection, schedule: Q01DX009 (ip), vehicle: saline): 100 % of control

SMILES: CCC(=O)OCc1ccc(Cl)cc1
- T/C (dose: 75.0 mg/kg/injection, schedule: Q04DX003 (ip), vehicle: Klucel (hydroxypropylcellulose) (HPC)): 100 % of control
- T/C (dose: 150.0 mg/kg/injection, schedule: Q04DX003 (ip), vehicle: Klucel (hydroxypropylcellulose) (HPC)): 100 % of control
- T/C (dose: 300.0 mg/kg/injection, schedule: Q04DX003 (ip), vehicle: Klucel (hydroxypropylcellulose) (HPC)): 100 % of control

SMILES: Nc1ccn(CC(=O)c2ccco2)c(=O)n1
- T/C (dose: 6.25 mg/kg/injection, schedule: Q01DX009 (ip), vehicle: saline): 109 % of control
- T/C (dose: 12.5 mg/kg/injection, schedule: Q01DX009 (ip), vehicle: saline): 95 % of control
- T/C [1]: 95 % of control and 109 % of control
- T/C [2]: 86 % of control
- T/C (dose: 50.0 mg/kg/injection, schedule: Q04DX003 (ip), vehicle: saline): 105 % of control
- T/C [3]: 105 % of control

SMILES: Oc1c(Cl)cc(Cl)cc1C=Nc1cc(C(F)(F)F)ccc1NCc1ccccc1
- T/C [4]: 93 % of control
- T/C [5]: 89 % of control
- T/C [6]: 94 % of control

SMILES: O=c1cc(-c2ccccc2)nc2ccccn12
- T/C (dose: 12.5 mg/kg/injection, schedule: Q01DX001 (ip), vehicle: saline with Tween-80): 109 % of control
- T/C (dose: 25.0 mg/kg/injection, schedule: Q01DX001 (ip), vehicle: saline with Tween-80): 104 % of control
- T/C (dose: 50.0 mg/kg/injection, schedule: Q01DX001 (ip), vehicle: saline with Tween-80): 123 % of control

SMILES: COc1cccc2c1C(=O)c1c(O)c3c(c(O)c1C2=O)C[C@@](O)(C(=O)CO)C[C@@H]3OC1CC(N(C)C)C(O)C(C)O1 (some centres not stated)
- T/C (dose: 1.44 mg/kg/injection, schedule: Q04DX003 (ip), vehicle: water): 170 % of control
- T/C (dose: 2.4 mg/kg/injection, schedule: Q04DX003 (ip), vehicle: water): 198 % of control
- T/C (dose: 4.0 mg/kg/injection, schedule: Q04DX003 (ip), vehicle: water): 89 % of control

SMILES: CCn1c2ccc([N+](=O)[O-])cc2c2c([N+](=O)[O-])cccc21
- T/C (dose: 100.0 mg/kg/injection, schedule: Q01DX001 (ip), vehicle: saline with Tween-80): 110 % of control
- T/C (dose: 200.0 mg/kg/injection, schedule: Q01DX001 (ip), vehicle: saline with Tween-80): 100 % of control
- T/C (dose: 400.0 mg/kg/injection, schedule: Q01DX001 (ip), vehicle: saline with Tween-80): 94 % of control

SMILES: CCN(CC)CCOC(=O)c1ccc(NC(=O)Nc2ccc(C(=O)OCCN(CC)CC)cc2)cc1
- T/C [5]: 119 % of control

SMILES: CC1OC(OC2CC(O)C3(CO)C4C(O)CC5(C)C(C6=CC(=O)OC6)CCC5(O)C4CCC3(O)C2)C(O)C(O)C1O (configuration not stated)
- T/C (dose: 1.5 mg/kg/injection, schedule: Q01DX010 (ip), vehicle: saline): 90 % of control
- T/C (dose: 3.0 mg/kg/injection, schedule: Q01DX010 (ip), vehicle: saline): 90 % of control

SMILES: CC(=O)N(O)c1ccc(Cl)cc1
- T/C (dose: 25.0 mg/kg/injection, schedule: Q04DX002 (ip), vehicle: saline with Tween-80): 91 % of control and 100 % of control
- T/C (dose: 50.0 mg/kg/injection, schedule: Q04DX002 (ip), vehicle: saline with Tween-80): 104 % of control and 110 % of control

SMILES: O=C(NCCCCCCCCCCNC(=O)N1CC1)N1CC1
- T/C (dose: 3.0 mg/kg/injection, schedule: Q04DX003 (ip), vehicle: saline with Tween-80): 154 % of control
- T/C (dose: 4.5 mg/kg/injection, schedule: Q04DX003 (ip), vehicle: saline with Tween-80): 241 % of control

SMILES: O=C(NCCO)c1cc2ccccc2cc1O
- T/C [7]: 90 % of control
- T/C (dose: 100.0 mg/kg/injection, schedule: Q04DX003 (ip), vehicle: Klucel (hydroxypropylcellulose) (HPC)): 104 % of control
- T/C [8]: 100 % of control
- T/C (dose: 200.0 mg/kg/injection, schedule: Q04DX003 (ip), vehicle: Klucel (hydroxypropylcellulose) (HPC)): 100 % of control
- T/C [9]: 100 % of control
- T/C (dose: 400.0 mg/kg/injection, schedule: Q04DX003 (ip), vehicle: Klucel (hydroxypropylcellulose) (HPC)): 100 % of control

SMILES: CC[N+](C)(C)c1ncnc2nc[nH]c12
- T/C [1]: 91 % of control
- T/C [2]: 95 % of control
- T/C (dose: 100.0 mg/kg/injection, schedule: Q01DX009 (ip), vehicle: saline): 87 % of control and 91 % of control
- T/C [3]: 104 % of control
- T/C (dose: 200.0 mg/kg/injection, schedule: Q01DX009 (ip), vehicle: saline): 95 % of control
- T/C (dose: 200.0 mg/kg/injection, schedule: Q04DX003 (ip), vehicle: saline): 104 % of control

SMILES: NS(=O)(=O)c1ccc(C(=O)NO)cc1
- T/C [10]: 100 % of control
- T/C [11]: 108 % of control
- T/C (dose: 400.0 mg/kg/injection, schedule: Q01DX001 (ip), vehicle: saline): 108 % of control

SMILES: C1=C\CCC2SC2CC/1 (configuration not stated)
- T/C (dose: 100.0 mg/kg/injection, schedule: Q04DX002 (ip), vehicle: saline): 100 % of control
- T/C (dose: 200.0 mg/kg/injection, schedule: Q04DX002 (ip), vehicle: saline): 97 % of control
- T/C (dose: 400.0 mg/kg/injection, schedule: Q04DX002 (ip), vehicle: saline): 100 % of control

SMILES: O=C1NC(c2ccc3ccccc3n2)Nc2ccccc21 (configuration not stated)
- T/C [7]: 105 % of control
- T/C [8]: 100 % of control
- T/C [9]: 110 % of control

SMILES: N#CC(C#N)C1c2ccccc2C([N+](=O)[O-])c2ccccc21 (configuration not stated)
- T/C [5]: 112 % of control
- T/C [6]: 116 % of control
- T/C (dose: 400.0 mg/kg/injection, schedule: Q01DX009 (ip), vehicle: saline with Tween-80): 112 % of control

SMILES: NC(=S)N/N=C\c1ncnc2ccccc12
- T/C (dose: 8.0 mg/kg/injection, schedule: Q01DX009 (ip), vehicle: saline with Tween-80): 150 % of control
- T/C (dose: 12.0 mg/kg/injection, schedule: Q01DX009 (ip), vehicle: saline with Tween-80): 150 % of control
- T/C (dose: 18.0 mg/kg/injection, schedule: Q01DX009 (ip), vehicle: saline with Tween-80): 150 % of control

SMILES: CSc1nnc(-c2ccncc2)s1
- T/C (dose: 50.0 mg/kg/injection, schedule: Q01DX001 (ip), vehicle: saline): 100 % of control
- T/C [10]: 100 % of control
- T/C [11]: 100 % of control

SMILES: COC(=O)CCC1([N+](=O)[O-])CCCCC1
- T/C (dose: 25.0 mg/kg/injection, schedule: Q01DX009 (ip), vehicle: saline with Tween-80): 87 % of control
- T/C (dose: 25.0 mg/kg/injection, schedule: Q04DX003 (ip), vehicle: saline with Tween-80): 92 % of control
- T/C [4]: 95 % of control
- T/C (dose: 50.0 mg/kg/injection, schedule: Q04DX003 (ip), vehicle: saline with Tween-80): 92 % of control
- T/C [5]: 95 % of control
- T/C (dose: 100.0 mg/kg/injection, schedule: Q04DX003 (ip), vehicle: saline with Tween-80): 88 % of control
